The numbers were not newly measured in patent US20110217337A1, “BIOACTIVE AGENT FOR BONE TISSUE ENGINEERING” (UNIVERSITY OF CONNECTICUT, priority 2010, published 2011), which cites them from elsewhere.

In one data set the test system is osteoblast. The conditions noted are these: cited from earlier work.
A further data set has as its system bone formation. The following applies: via the PKA pathway; cited from earlier work.
For a further data set, the system named is cell proliferation. The conditions noted are these: cited from earlier work.
A further data set concerns osteogenesis. The following applies: via the PKA pathway; cited from earlier work.
A further data set deals with cAMP receptors. The conditions noted are these: in vivo; cited from earlier work.

In the case of `Nc1ncnc2c1nc(Br)n2[C@@H]1O[C@@H]2COP(=O)(O)O[C@H]2[C@H]1O` [8-Br-cAMP], the osteoblast proliferation entry in the data set with osteoblast is reported as “inhibits osteoblast proliferation”.

On to `CCCC(=O)Nc1ncnc2c1ncn2[C@@H]1O[C@@H]2COP(=O)(O)O[C@H]2[C@H]1OC(=O)CCC` [db-cAMP, N^6,2′-O-dibutyryladenosine-3′,5′-cyclic monophosphate], for which the “in vivo bone formation” value in the data set on bone formation is “enhances”. Also, the cell proliferation entry with cell proliferation was “inhibit cell proliferation”. Moreover, the in vitro osteogenesis entry with osteogenesis is listed as “enhances”. Besides, the “activation of cAMP receptors” value in the data set with cAMP receptors is listed as “activate all cAMP receptors non-specifically”.
